In ChEMBL document CHEMBL1159086, “Design, synthesis and SAR analysis of novel selective sigma1 ligands (Part 2)” (Bioorg Med Chem, 2010) one finds Ki, selectivity ratio and inhibition data, which are given here for twelve molecules.

The term Ki denotes the dissociation constant of the complex between target and ligand, obtained from inhibition or displacement. A higher Ki goes with lower affinity. The inhibition is the drop in the measured response relative to a control, in per cent.

Assay [1] in a line: Displacement of [3H]ditolylguanidine from sigma 2 opioid receptor in rat liver homogenate. It counts as tissue-based. In general terms: Loss of bound radioactivity is the signal in a displacement assay; it reports binding, not function.
In assay [2] the target is Sigma non-opioid intracellular receptor 1 (Rattus norvegicus, UniProt Q9R0C9). Description: Displacement of [3H](+)-pentazocine from sigma 1 opioid receptor in rat liver homogenate. The assay is classed as tissue-based.
Sequence of Sigma non-opioid intracellular receptor 1 (Q9R0C9 whole entry): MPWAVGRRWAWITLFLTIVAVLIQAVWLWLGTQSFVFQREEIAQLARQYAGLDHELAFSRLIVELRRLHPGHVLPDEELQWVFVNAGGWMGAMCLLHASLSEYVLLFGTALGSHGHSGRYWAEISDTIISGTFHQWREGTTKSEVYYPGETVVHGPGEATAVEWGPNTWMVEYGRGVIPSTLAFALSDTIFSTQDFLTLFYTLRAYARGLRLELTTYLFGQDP
The nature of assay [3]: Selectivity for rat liver sigma 1 opioid receptor over rat liver sigma 2 opioid receptor.
In assay [4] the target is Delta-type opioid receptor (Rattus norvegicus) (UniProt P33533). Description: Displacement of [3H]DPDPE from delta opioid receptor in rat brain homogenate at 1 uM. It counts as tissue-based.
Sequence of Delta-type opioid receptor (Rattus norvegicus) (P33533 whole entry): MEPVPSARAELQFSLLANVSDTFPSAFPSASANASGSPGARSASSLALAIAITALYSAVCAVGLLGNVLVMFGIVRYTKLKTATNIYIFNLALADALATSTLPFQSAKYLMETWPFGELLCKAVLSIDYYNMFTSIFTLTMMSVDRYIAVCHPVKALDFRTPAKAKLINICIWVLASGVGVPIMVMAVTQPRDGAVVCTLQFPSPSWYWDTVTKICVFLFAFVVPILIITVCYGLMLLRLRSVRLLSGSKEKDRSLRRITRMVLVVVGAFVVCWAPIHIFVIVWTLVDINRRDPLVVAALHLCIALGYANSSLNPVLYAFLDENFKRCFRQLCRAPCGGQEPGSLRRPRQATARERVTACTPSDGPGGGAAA
The target in assay [5] is Mu-type opioid receptor (Cavia porcellus, UniProt P97266). The assay can be described thus: Displacement of [3H]DAMGO from mu-type opioid receptor in guinea pig brain homogenate. The assay is classed as tissue-based.
Sequence of Mu-type opioid receptor (P97266 whole entry): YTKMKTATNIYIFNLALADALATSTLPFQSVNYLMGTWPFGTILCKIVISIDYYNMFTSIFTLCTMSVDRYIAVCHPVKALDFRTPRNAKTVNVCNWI
In assay [6] the target is Kappa-type opioid receptor (Cavia porcellus) (UniProt P41144). Description: Displacement of [3H]-U-69593 from kappa-type opioid receptor in guinea pig brain homogenate at 1 uM. The assay is classed as tissue-based.
Sequence of Kappa-type opioid receptor (Cavia porcellus) (P41144 whole entry): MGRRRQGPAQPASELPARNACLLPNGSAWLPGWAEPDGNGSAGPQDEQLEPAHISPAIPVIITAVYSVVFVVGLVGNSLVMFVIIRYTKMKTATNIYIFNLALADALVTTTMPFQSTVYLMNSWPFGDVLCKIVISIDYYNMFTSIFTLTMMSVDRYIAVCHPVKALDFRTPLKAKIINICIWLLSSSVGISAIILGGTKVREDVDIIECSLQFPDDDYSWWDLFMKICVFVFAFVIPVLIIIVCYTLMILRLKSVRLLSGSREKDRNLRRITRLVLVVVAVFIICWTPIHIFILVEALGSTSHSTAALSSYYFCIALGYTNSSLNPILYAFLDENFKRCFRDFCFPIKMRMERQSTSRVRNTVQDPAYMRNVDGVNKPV
Assay [7] concerns the target Mu-type opioid receptor (Cavia porcellus) (UniProt P97266). Description: Displacement of [3H]DAMGO from mu-type opioid receptor in guinea pig brain homogenate at 1 uM. The assay is classed as tissue-based.
Assay [8] concerns the target Delta-type opioid receptor (Rattus norvegicus, UniProt P33533). The assay can be described thus: Displacement of [3H]DPDPE from delta opioid receptor in rat brain homogenate. It counts as tissue-based.
The target in assay [9] is Kappa-type opioid receptor (Cavia porcellus, UniProt P41144). The assay can be described thus: Displacement of [3H]-U-69593 from kappa-type opioid receptor in guinea pig brain homogenate. It counts as tissue-based.
Sequence of Kappa-type opioid receptor (P41144 whole entry): as above

Sequence of Mu-type opioid receptor (Cavia porcellus) (P97266 whole entry): as the sequence (P97266 whole entry) above
Sequence of Delta-type opioid receptor (P33533 whole entry): as the sequence (P33533 whole entry) above

With `COc1ccc2cc(/C(C)=C/CN(C)C)ccc2c1`, the values for the inhibition constant Ki in [1] and in [2] were 707 nM and 27.3 nM, respectively. For the same molecule, the selectivity ratio in assay [3] came to 26.

On to `C/C(=C\CN(C)Cc1ccccc1)c1ccc(-c2ccccc2)cc1`, for which the Ki in [1] amounted to 309 nM; in [2], 4.17 nM. For the same molecule, in assay [3], the selectivity ratio worked out at 74.

On to `COc1ccc2cc(/C(C)=C/CN(C)Cc3ccccc3)ccc2c1`, for which the values for the inhibition constant Ki in assay [1] and in assay [2] were 568 nM and 13.7 nM, respectively. Moreover, the selectivity ratio in [3] is 41.

Consider `COc1ccc2cc(/C(C)=C/CN3CCCCC3)ccc2c1`, for which the values for the Ki in [1] and in assay [2] were 136 nM and 4.41 nM, respectively. In addition, in assay [3], the selectivity ratio stood at 31.

In the case of `COc1ccc2cc(C(C)(O)CCN3CCCCC3)ccc2c1` (stereo not drawn), the inhibition constant Ki in [1] was found to be 154 nM; in [2] it was 10.4 nM. The selectivity ratio in [3] is 15.

In the case of `COc1ccc2cc(C(C)CCN(C)C)ccc2c1` (racemic), the Ki in [1] was found to be 1550 nM; in [2] it was 14.4 nM. In addition, the selectivity ratio in [3] was found to be 108.

For the molecule `CC(CCN(C)Cc1ccccc1)c1ccc(-c2ccccc2)cc1` (racemic), the inhibition is 0% in assay [4] and 15% in assay [6]. In addition, the values for the Ki in assay [5], in [1] and in assay [2] were 248 nM, 214 nM and 3.59 nM, respectively. The selectivity ratio in assay [3] was determined as 60.

`COc1ccc2cc(C(C)(O)CCN(C)Cc3ccccc3)ccc2c1` (racemic): the inhibition stood at 32% in assay [7] and 30% in assay [6]. In addition, the Ki in assay [1] was found to be 940 nM; in assay [8], 41 nM; in assay [2], 6.04 nM. Moreover, the selectivity ratio in [3] was 156.

Turning to `CN(CCC(C)(O)c1ccc(-c2ccccc2)cc1)Cc1ccccc1` (racemic), the inhibition in assay [4] was 31%; in [7] it was 45%; in assay [6], 30%. Besides, the inhibitory constant (Ki) in assay [1] was determined as 215 nM; in assay [2], 2.38 nM. Further, in assay [3], the selectivity ratio worked out at 90.

For the molecule `COc1ccc2cc(C(C)(O)CCN(C)C)ccc2c1` (racemic), the inhibitory constant (Ki) in assay [1] is greater than 10000 nM; in assay [2] it was 38.8 nM. Further, the selectivity ratio in assay [3] is greater than 258.

Take `COc1ccc2cc(C(C)CCN(C)Cc3ccccc3)ccc2c1` (racemic): the inhibition in assay [7] was found to be 32%. Moreover, the inhibition constant Ki in [9] was determined as 841 nM; in assay [1] it was 169 nM; in assay [8], 171 nM; in assay [2], 2.31 nM. Moreover, the selectivity ratio in assay [3] worked out at 73.

Turning to `COc1ccc2cc(C(C)CCN3CCCCC3)ccc2c1` (racemic), the inhibition constant (Ki) in assay [1] worked out at 169 nM; in assay [2], 1.29 nM. The selectivity ratio in assay [3] was 131.
